Measured values reported in patent US20060069132A1, “Azolecarboxamide herbicides” (priority 2004, published 2006).

Experiments:
rice = experiment: Test B flooded paddy test; format: in vivo, Oryza sativa; details: 1000 g ai/ha, scale 0 to 100 (0 no effect, 100 complete control)
In short: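 After treating 2-leaf paddy plants or 2–18 cm postemergence plants (1 to 4 leaves) with formulated chemical, researchers kept them in a greenhouse for 13–15 days. Effects were judged visually versus controls: 0 indicates none, 100 total control.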

[1] = tested on: small flower umbrella sedge; experiment: Test B flooded paddy test; format: in vivo, Cyperus difformis; details: 1000 g ai/ha, scale 0 to 100 (0 no effect, 100 complete control)
In short: (§1)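 Read-out: visual comparison with controls, scored 0 to 100, where 100 means complete control and 0 no effect. Formulated chemicals were applied postemergence to plants 2–18 cm tall (1- to 4-leaf), or to flooded-paddy plants at the 2-leaf stage, then held 13 to 15 days under glass.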

velvetleaf = experiment: Test B pre-/postemergence herbicide test; format: in vivo, Abutilon theophrasti; details: for Velvetleaf plant response rating: scale 0 (no effect) to 100 (complete control)
In short: (§2)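 Flooded paddy rice and barnyardgrass were treated at the 2-leaf stage; upland plantings received compound either on sown seed or on 1- to 4-leaf seedlings. All were kept 13–15 days in a greenhouse and scored visually, 0–100, relative to untreated plants.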

wild oat = experiment: Test B postemergence herbicide test; format: in vivo, Avena fatua; details: scale 0 (no effect) to 100 (complete control)
In short: (§3)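 Greenhouse test; postemergence application to plants at 1–4 leaves (2–18 cm); paddy species at 2 leaves; evaluated visually vs controls at 13–15 days; scale 0–100 (100 = complete control).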

barnyardgrass [2] = experiment: Test B flooded paddy test; format: in vivo, Echinochloa crus-galli; details: 1000 g ai/ha, scale 0 to 100 (0 no effect, 100 complete control)
In short: as §1

giant foxtail = experiment: Test B pre-/postemergence herbicide test; format: in vivo, Setaria faberi; details: for Foxtail, Giant plant response rating: postemergence
In short: as §2

pigweed = experiment: Test B pre-/postemergence herbicide test; format: in vivo, Amaranthus retroflexus; details: for Pigweed plant response rating: scale 0 (no effect) to 100 (complete control)
In short: as §2

wheat = experiment: Test B postemergence herbicide test; format: in vivo, Triticum aestivum; set-up: key to Wheat plant response rating: 0 = no effect, 100 = complete control
In short: as §3

Surinam grass = experiment: Test B pre-/postemergence herbicide test; format: in vivo, Urochloa decumbens; details: for Surinam Grass plant response rating: scale 0 (no effect) to 100 (complete control)
In short: as §2

lambsquarters = experiment: Test B pre-/postemergence herbicide test; format: in vivo, Chenopodium album; details: for Lambsquarters plant response rating: scale 0 (no effect) to 100 (complete control)
In short: as §2

blackgrass = experiment: Test B postemergence herbicide test; format: in vivo, Alopecurus myosuroides; details: postemergence
In short: as §1

barnyardgrass [3] = experiment: Test B pre-/postemergence herbicide test; format: in vivo, Echinochloa crus-galli; details: for Barnyardgrass plant response rating: postemergence
In short: (§4)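 Pre: seeds sown, then sprayed. Post: 1–4-leaf plants (2–18 cm) sprayed at the same time. Paddy: flooded, treated at 2-leaf stage. Formulation: non-phytotoxic solvent with surfactant. Greenhouse 13–15 days; visual 0–100 score relative to controls.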

large crabgrass = experiment: Test B pre-/postemergence herbicide test; format: in vivo, Digitaria sanguinalis; details: for Crabgrass, Large plant response rating: postemergence
In short: as §2

morningglory = experiment: Test B pre-/postemergence herbicide test; format: in vivo, Ipomoea coccinea; details: for Morningglory plant response rating: scale 0 (no effect) to 100 (complete control)
In short: as §4

cocklebur = experiment: Test B pre-/postemergence herbicide test; format: in vivo, Xanthium strumarium; details: for Cocklebur plant response rating: postemergence
In short: as §4

[4] = 125 g ai/ha, 0 is no effect, 100 is complete control, preemergence
[5] = 125 g ai/ha, visual rating, postemergence
[6] = 125 g ai/ha, visual rating, scale 0 (no effect) to 100 (complete control)
[7] = 500 g ai/ha, scale 0 to 100, 0 is no effect, 100 is complete control

## C=CCNC(=O)c1cccc(NC(=O)c2nn(C(C)C)nc2CC)c1 [Compound 382]
rice
  Rice plant response rating: 80
[1]
  Sedge, Umbrella plant response rating: 70
velvetleaf; [4]
  Plant response rating (0 to 100 scale), Velvetleaf: 10
velvetleaf; [5]
  Velvetleaf plant response rating: 10
velvetleaf; Postemergence, 500 g ai/ha
  Velvetleaf plant response rating: 20
Wild oat; [5]
  Oat, Wild plant response rating: 10
Wild oat; Postemergence, 500 g ai/ha
  Oat, Wild plant response rating: 20
Barnyardgrass [2]
  Barnyardgrass plant response rating: 80
Giant foxtail; [4]
  Plant response rating (0 to 100 scale), Foxtail, Giant: 80
Giant foxtail; [6]
  Foxtail, Giant plant response rating: 0
Giant foxtail; [7]
  Foxtail, Giant plant response rating: 10
pigweed; [4]
  Plant response rating (0 to 100 scale), Pigweed: 50
pigweed; [5]
  Pigweed plant response rating: 30
pigweed; Postemergence, 500 g ai/ha
  Pigweed plant response rating: 40
wheat; 125 g ai/ha, visual rating, scale 0 (no effect) to 100 (complete control), postemergence
  Wheat plant response rating: 0
wheat; 500 g ai/ha, scale 0 to 100, 0 no effect, 100 complete control, preemergence
  Wheat plant response rating: 80
wheat; Postemergence, 500 g ai/ha, scale 0 (no effect) to 100 (complete control)
  Wheat plant response rating: 10
Surinam grass; [4]
  Plant response rating (0 to 100 scale), Surinam Grass: 50
Surinam grass; [5]
  Surinam Grass plant response rating: 10
Surinam grass; Postemergence, 500 g ai/ha
  Surinam Grass plant response rating: 10
lambsquarters; [4]
  Plant response rating (0 to 100 scale), Lambsquarters: 100
lambsquarters; [5]
  Lambsquarters plant response rating: 50
lambsquarters; Postemergence, 500 g ai/ha
  Lambsquarters plant response rating: 70
blackgrass; [6]
  Blackgrass plant response rating: 10
blackgrass; [7]
  Blackgrass plant response rating: 30
Barnyardgrass [3]; [4]
  Plant response rating (0 to 100 scale), Barnyardgrass: 80
Barnyardgrass [3]; [6]
  Barnyardgrass plant response rating: 0
Barnyardgrass [3]; [7]
  Barnyardgrass plant response rating: 0
Large crabgrass; [4]
  Plant response rating (0 to 100 scale), Crabgrass, Large: 80
Large crabgrass; [6]
  Crabgrass, Large plant response rating: 10
Large crabgrass; [7]
  Crabgrass, Large plant response rating: 10
morningglory; [4]
  Plant response rating (0 to 100 scale), Morningglory: 10
morningglory; [5]
  Morningglory plant response rating: 20
morningglory; Postemergence, 500 g ai/ha
  Morningglory plant response rating: 60
cocklebur; [4]
  Plant response rating (0 to 100 scale), Cocklebur: 0
cocklebur; [6]
  Cocklebur plant response rating: 10
cocklebur; [7]
  Cocklebur plant response rating: 10
